pIC50: −log10 of the molar value. Values after ≈ are worked out from the molar mass of the structure shown.
Key:
[1] = Half life value at pH-7.4; format: ADME
[2] = Solubility at pH-7.4; format: physicochemical
[3] = Solubility at pH-5.5; format: physicochemical
[4] = Inhibition of NYH Cell line; format: functional, cell-based; conditions: Homo sapiens
[5] = Half life value in human serum; format: ADME, cell-free

half-life [1]	solubility [2]	solubility [3]	pIC50 [4]	half-life [5]	SMILES
> 240 min	0.083 mg/mL	1.2 mg/mL	9.30	30 min	COCCOCCOCCOC(=O)OC[n+]1ccc(N/C(=N/CCCCCCOc2ccc(Cl)cc2)NC#N)cc1.[Cl-]
–	–	–	8.30	–	CC(C)[C@@H](N)C(=O)OC[n+]1ccc(N/C(=N/CCCCCCOc2ccc(Cl)cc2)NC#N)cc1
> 240 min	0.25 mg/mL	> 1.2 mg/mL	7.80	> 240 min	Cl.N#CN/C(=N\CCCCCCOc1ccc(Cl)cc1)Nc1cc[n+](COC(=O)NCCCN)cc1.[Cl-]
> 240 min	0.12 mg/mL	> 1.2 mg/mL	9.10	25 min	COCCOCCOCCOCCOC(=O)OC[n+]1ccc(N/C(=N/C#N)NCCCCCCOc2ccc(Cl)cc2)cc1.[Cl-] [TEGLARINAD CHLORIDE]
> 240 min	0.038 mg/mL	> 1.2 mg/mL	9.40	15 min	Cl.N#CN/C(=N\CCCCCCOc1ccc(Cl)cc1)Nc1cc[n+](COC(=O)OCCCCCCCCCN)cc1.[Cl-]
–	0.0005 mg/mL (≈ 1.34 µM)	0.002 mg/mL (≈ 5.38 µM)	9.30	–	N#CN=C(NCCCCCCOc1ccc(Cl)cc1)Nc1ccncc1 [CHS-828]
> 240 min	0.014 mg/mL	0.034 mg/mL	9.20	27 min	COCCOCCOC(=O)OC[n+]1ccc(N/C(=N/CCCCCCOc2ccc(Cl)cc2)NC#N)cc1.[Cl-]

Reference: ChEMBL document CHEMBL1145242, “EB1627: a soluble prodrug of the potent anticancer cyanoguanidine CHS828” (Bioorg Med Chem Lett, 2005)
